Data reported in ChEMBL document CHEMBL3994660, “Novel 5-arylthio-5H-chromenopyridines as a new class of anti-fibrotic agents” (Bioorg Med Chem Lett, 2017).
Calls of active or inactive are those of the source. The calls are words filed in the database; no cut-off is given here.

Legend:
[1] = test system: Hepatitis C virus; experiment: Inhibition of HCV NS3 protein expression infected in human Huh7.5 cells at 5 uM after 6 hrs by Western blot method relative to control; assay type: functional, Hepacivirus hominis; conditions: Huh7.5, 6 h
[2] = test system: Hepatitis C virus; experiment: Inhibition of HCV NS5A protein expression infected in human Huh7.5 cells at 5 to 25 uM after 6 hrs by Western blot method; assay type: functional, cell-based; conditions: Hepacivirus hominis
[3] = Cytotoxicity against human LX2 cells assessed as reduction in cell viability at 5 to 25 uM after 6 hrs by CellTiter-Glo luminescent assay; assay type: cell-based; conditions: lx2, 6 h
[4] = test system: LX2; experiment: Antifibrotic activity against human LX2 cells assessed as inhibition of spindle shaped cells by measuring round shaped cells at 25 uM after 6 hrs by light microscopic method; assay type: functional, cell-based
[5] = test system: Hepatitis C virus; experiment: Inhibition of HCV NS3 protein expression infected in human Huh7.5 cells at 25 uM after 6 hrs by Western blot method relative to control; assay type: functional, Hepacivirus hominis; conditions: Huh7.5, 6 h
[6] = Cytotoxicity against human Huh7.5 cells infected with HCV assessed as reduction in cell viability at 5 to 25 uM after 6 hrs by CellTiter-Glo luminescent assay; assay type: cell-based; conditions: huh7.5, 6 h
[7] = test system: Hepatitis C virus; experiment: Inhibition of HCV NS3 protein expression infected in human Huh7.5 cells at 10 uM after 6 hrs by Western blot method relative to control; assay type: functional, Hepacivirus hominis; conditions: Huh7.5, 6 h
[8] = test system: LX2; experiment: Antifibrotic activity against human LX2 cells assessed as inhibition of spindle shaped cells by measuring round shaped cells at 10 uM after 6 hrs by light microscopic method; assay type: functional, cell-based

Row | Compound | inhibition at 5 µM [1] [%] | inhibition [2] | Activity [3] | inhibition [4] | inhibition at 25 µM [5] [%] | Activity [6] | inhibition at 10 µM [7] [%] | inhibition [8]
1 | CCc1ccc(SC2c3ccc(N(CC)CC)cc3Oc3nc(N)c(C#N)c(N)c32)cc1 (stereo unspecified) | 47 | inactive | Non-Toxic | Active | 19 | Non-Toxic | 0 | 
2 | CCN(CC)c1ccc2c(c1)Oc1nc(N)c(C#N)c(N)c1C2Sc1ccc(F)cc1 (stereo unspecified) | 33 | inactive | Non-Toxic |  | 0 | Non-Toxic | 3 | Active
3 | CCN(CC)c1ccc2c(c1)Oc1nc(N)c(C#N)c(N)c1C2Sc1ccc(C)cc1 (stereo unspecified) |  | inactive |  |  |  | Non-Toxic |  | 
4 | CCN(CC)c1ccc2c(c1)Oc1nc(N)c(C#N)c(N)c1C2Sc1ccc(Cl)cc1 (stereo unspecified) | 42 | inactive | Toxic |  | 47 | Non-Toxic | 34 | 
5 | CCN(CC)c1ccc2c(c1)Oc1nc(N)c(C#N)c(N)c1C2Sc1ccc(Br)cc1 (stereo unspecified) | 59 | inactive | Non-Toxic |  | 32 | Non-Toxic | 49 | Active
6 | CCN(CC)c1ccc2c(c1)Oc1nc(N)c(C#N)c(N)c1C2Sc1ccc(OC)cc1 (stereo unspecified) | 47 | inactive | Toxic |  | 28 | Non-Toxic | 27 | 
7 | CCN(CC)c1ccc2c(c1)Oc1nc(N)c(C#N)c(N)c1C2Sc1ccc(SC)cc1 (stereo unspecified) | 29 | inactive |  | Active | 45 | Non-Toxic | 35 | 
